US20040044006A1, “Methods of use of quinolone compounds against pneumococcal and haemophilus bacteria” (priority 1999, published 2004)
Values after ≈ are worked out from the molar mass of the structure shown. Where two headings read alike, the source gives them in different places.

How the values were obtained:
[1] = test system: pneumococci (5 quinolone susceptible and 1 resistant strains); experiment: Post-antibiotic effect (PAE) testing; assay type: cell-based, Streptococcus pneumoniae
Outline: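 Pneumococci (~5×10^6 cfu/ml) in MHB with 5% lysed horse blood were exposed 1 h at 35 °C, the quinolone-resistant strain at 5×MIC, then diluted 1:1000. Viable counts every 2 h until McFarland #1 turbidity. PAE = T − C, the 1 log10 regrowth time versus untreated control; mean of two assays ±SD.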

[2] = test system: quinolone-resistant Haemophilus influenzae strains; experiment: Microdilution MIC determination in HTM for quinolone-resistant Haemophilus influenzae strains; assay type: cell-based; conditions: 9 quinolone-resistant Haemophilus influenzae strains
Outline: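 Broth microdilution in HTM, inoculum from 24 h chocolate agar colonies by direct suspension to a final 3-8×10^5 CFU/ml. Incubated in ambient air at 35° C. for 20-24 hours; MIC read as the lowest concentration with no growth.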

[3] = test system: pneumococci with ciprofloxacin MICs ≧8 μg/ml; experiment: Quinolone agar dilution MICs of 28 ciprofloxacin resistant pneumococcal strains, correlated with QRDR mutations; assay type: cell-based, Streptococcus pneumoniae
Description: Additionally these strains were tested for mutations in parC, gyrA, parE, and gyrB (Pan, et al. Antimicrob. Agents Chemother. 40:2321-2326, 1996) and for efflux mechanism (Brenwald, et ail., Antimicrob. Agents Chemother. 42:2032-2035, 1998).
Gemifloxacin susceptibility powder was obtained from SmithKline Beecham Laboratories, Harlow, UK. Agar dilution methodology was performed on 28 strains as described previously (M. R. Jacobs, Clin. Infect. Dis. 15: 119-127, […] and M. R. Jacobs, Rev. Med. Microbiol. 6:77-93, 1995), using Mueller-Hinton altar (BBL Microbiology Systems, Cockeysville, Md.) supplemented with 5% sheep blood. Standard quality control strains, including Streptococcus pneumoniae ATCC 49619, were included in each run of agar dilution MICs.

Molecule `N[C@@H]1[C@H]2CN(c3nc4c(cc3F)c(=O)c(C(=O)O)cn4-c3ccc(F)cc3F)C[C@@H]12` [Trovafloxacin, trovafloxacin] has a PAE ([1]; 5×MIC, quinolone resistant strain) of 1.3 h, a PAE ([1]; 10×MIC for 1 h, range over 5 quinolone susceptible strains) of 0.3 to 3.0 h and an MIC50 [2] of 1 µg/mL (≈ 2.4 µM). The “MIC Range” value [2] was 0.25 to 8.0 µg/mL, the MIC50 ([3]; Streptococcus pneumoniae) was 1 µg/mL (≈ 2.4 µM) and the MIC90 ([3]; Streptococcus pneumoniae) was 4 µg/mL (≈ 9.61 µM). For the same molecule, the MIC ([3]; Streptococcus pneumoniae, read-out: MICs in strains with three or four QRDR mutations, 20 strains, bound holds in all 20 (ciprofloxacin, levofloxacin, sparfloxacin), 19 (grepafloxacin), 10 (trovafloxacin), 18 (gemifloxacin)) was > 2 µg/mL, the MIC ([3]; Streptococcus pneumoniae, read-out: MICs in strains with three or four QRDR mutations, 21 strains, bound holds in all 21 (ciprofloxacin, levofloxacin, sparfloxacin), 20 (grepafloxacin), 11 (trovafloxacin), 19 (gemifloxacin)) was ≥ 2 µg/mL and the MIC ([3]; Streptococcus pneumoniae, strain 1, ParC S79-F, ParE I460-V, GyrA S81-F, GyrB None) was 2 µg/mL (≈ 4.8 µM). For the same molecule, the MIC ([3]; Streptococcus pneumoniae, strain 1, ParC S79-F, ParE I460-V, GyrA S83-F, GyrB None) was 2 µg/mL (≈ 4.8 µM), the MIC ([3]; Streptococcus pneumoniae, strain 2, ParC S79-Y, ParE I460-V, GyrA None, GyrB None) was 0.25 µg/mL (≈ 0.6 µM) and the MIC ([3]; Streptococcus pneumoniae, strain 3, ParC D83-N, ParE I460-V, GyrA S81-F, GyrB None) was 0.25 µg/mL (≈ 0.6 µM). The MIC ([3]; Streptococcus pneumoniae, strain 3, ParC D83-N, ParE I460-V, GyrA S83-F, GyrB None) was 0.25 µg/mL (≈ 0.6 µM), the MIC ([3]; Streptococcus pneumoniae, strain 4, ParC S79-F, ParE I460-V, GyrA S81-F, GyrB None) was 0.25 µg/mL (≈ 0.6 µM) and the MIC ([3]; Streptococcus pneumoniae, strain 4, ParC S79-F, ParE I460-V, GyrA S83-F, GyrB None) was 0.25 µg/mL (≈ 0.6 µM). For the same molecule, the MIC ([3]; Streptococcus pneumoniae, strain 5, ParC R95-C, ParE D435-N, GyrA S81-F, GyrB None) was 0.25 µg/mL (≈ 0.6 µM), the MIC ([3]; Streptococcus pneumoniae, strain 5, ParC R95-C, ParE D435-N, GyrA S83-F, GyrB None) was 0.25 µg/mL (≈ 0.6 µM) and the MIC ([3]; Streptococcus pneumoniae, strain 6, ParC S79-Y, ParE I460-V, GyrA E85-K, GyrB None) was 2 µg/mL (≈ 4.8 µM). The MIC ([3]; Streptococcus pneumoniae, strain 6, ParC S79-Y, ParE I460-V, GyrA E87-K, GyrB None) was 2 µg/mL (≈ 4.8 µM), the MIC ([3]; Streptococcus pneumoniae, strain 7, ParC None, ParE I460-V, GyrA None, GyrB None) was 0.5 µg/mL (≈ 1.2 µM) and the MIC ([3]; Streptococcus pneumoniae, strain 8, ParC S79-Y, ParE None, GyrA None, GyrB None) was 0.5 µg/mL (≈ 1.2 µM). The MIC ([3]; Streptococcus pneumoniae, strain 9, ParC S79-Y, ParE None, GyrA None, GyrB None) was 1 µg/mL (≈ 2.4 µM), the MIC ([3]; Streptococcus pneumoniae, strain 10, ParC S79-F, ParE I460-V, GyrA S81-C, GyrB None) was 1 µg/mL (≈ 2.4 µM) and the MIC ([3]; Streptococcus pneumoniae, strain 10, ParC S79-F, ParE I460-V, GyrA S83-C, GyrB None) was 1 µg/mL (≈ 2.4 µM). The MIC ([3]; Streptococcus pneumoniae, strain 11, ParC S79-F, ParE I460-V, GyrA S81-F, GyrB None) was 1 µg/mL (≈ 2.4 µM), the MIC ([3]; Streptococcus pneumoniae, strain 11, ParC S79-F, ParE I460-V, GyrA S83-F, GyrB None) was 1 µg/mL (≈ 2.4 µM) and the MIC ([3]; Streptococcus pneumoniae, strain 12, ParC S79-F, ParE I460-V, GyrA None, GyrB D435-N) was 1 µg/mL (≈ 2.4 µM). It also gave an MIC ([3]; Streptococcus pneumoniae, strain 13, ParC S79-F, ParE I460-V, GyrA None, GyrB E474-K) of 1 µg/mL (≈ 2.4 µM), an MIC ([3]; Streptococcus pneumoniae, strain 14, ParC S79-F, ParE I460-V, GyrA S81-F, GyrB None) of 1 µg/mL (≈ 2.4 µM) and an MIC ([3]; Streptococcus pneumoniae, strain 14, ParC S79-F, ParE I460-V, GyrA S83-F, GyrB None) of 1 µg/mL (≈ 2.4 µM). It also gave an MIC ([3]; Streptococcus pneumoniae, strain 15, ParC 79-F, ParE I460-V, GyrA S83-F, GyrB None) of 1 µg/mL (≈ 2.4 µM), an MIC ([3]; Streptococcus pneumoniae, strain 15, ParC S79-F, ParE I460-V, GyrA S81-F, GyrB None) of 1 µg/mL (≈ 2.4 µM) and an MIC ([3]; Streptococcus pneumoniae, strain 16, ParC S79-F, ParE I460-V, GyrA S81-F, GyrB None) of 2 µg/mL (≈ 4.8 µM). For the same molecule, the MIC ([3]; Streptococcus pneumoniae, strain 16, ParC S79-F, ParE I460-V, GyrA S83-F, GyrB None) was 2 µg/mL (≈ 4.8 µM), the MIC ([3]; Streptococcus pneumoniae, strain 17, ParC D83-N, ParE None, GyrA S81-F, GyrB None) was 2 µg/mL (≈ 4.8 µM) and the MIC ([3]; Streptococcus pneumoniae, strain 17, ParC D83-N, ParE None, GyrA S83-F, GyrB None) was 2 µg/mL (≈ 4.8 µM). For the same molecule, the MIC ([3]; Streptococcus pneumoniae, strain 18, ParC S79-F, ParE I460-V, GyrA S81-F, GyrB None) was 2 µg/mL (≈ 4.8 µM), the MIC ([3]; Streptococcus pneumoniae, strain 18, ParC S79-F, ParE I460-V, GyrA S83-F, GyrB None) was 2 µg/mL (≈ 4.8 µM) and the MIC ([3]; Streptococcus pneumoniae, strain 19, ParC S79-F, ParE I460-V, GyrA S81-F, GyrB None) was 2 µg/mL (≈ 4.8 µM). The MIC ([3]; Streptococcus pneumoniae, strain 19, ParC S79-F, ParE I460-V, GyrA S83-F, GyrB None) was 2 µg/mL (≈ 4.8 µM), the MIC ([3]; Streptococcus pneumoniae, strain 20, ParC S79-F, ParE I460-V, GyrA E85-K, GyrB None) was 2 µg/mL (≈ 4.8 µM) and the MIC ([3]; Streptococcus pneumoniae, strain 20, ParC S79-F, ParE I460-V, GyrA E87-K, GyrB None) was 2 µg/mL (≈ 4.8 µM). For the same molecule, the MIC ([3]; Streptococcus pneumoniae, strain 21, ParC S79-F, ParE I460-V, GyrA S81-F, GyrB None) was 1 µg/mL (≈ 2.4 µM), the MIC ([3]; Streptococcus pneumoniae, strain 21, ParC S79-F, ParE I460-V, GyrA S83-F, GyrB None) was 1 µg/mL (≈ 2.4 µM) and the MIC ([3]; Streptococcus pneumoniae, strain 22, ParC S79-F, ParE I460-V, GyrA S81-Y, GyrB None) was 2 µg/mL (≈ 4.8 µM). It also gave an MIC ([3]; Streptococcus pneumoniae, strain 22, ParC S79-F, ParE I460-V, GyrA S83-Y, GyrB None) of 2 µg/mL (≈ 4.8 µM), an MIC ([3]; Streptococcus pneumoniae, strain 23, ParC S79-Y, ParE None, GyrA S81-A, GyrB None) of 2 µg/mL (≈ 4.8 µM) and an MIC ([3]; Streptococcus pneumoniae, strain 23, ParC S79-Y, ParE None, GyrA S83-A, GyrB None) of 2 µg/mL (≈ 4.8 µM). The MIC Range ([3]; agar dilution, 28 strains with ciprofloxacin MICs ≧8.0 μg/ml) was 0.25 to 8 µg/mL.
